Columns and labels:
ROCK2 protein [1] = molecular target: T1, ROCK2 protein (Homo sapiens, UniProt O75116); test: ROCK2 kinase inhibitory activity, mobility shift assay (MSA, Carna Biosciences); assay type: biochemical; design: GST (N); purchased Carna Biosciences, Inc; host or cells: baculovirus expression system; conditions: for IC50: ROCK2 kinase; for inhibition at 10 µM: evaluation concentration 10 µM; for inhibition at 1 µM: evaluation concentration 1 µM
Procedure: The ROCK2 kinase inhibitory activity was measured using a mobility shift assay (MSA) provided by Carna Biosciences, Inc.
The test compound was dissolved in DMSO and further diluted with DMSO to prepare a solution having a concentration 100 times the evaluation concentration. The solution was further diluted 25 times with an assay buffer (20 mmol/L HEPES, 0.01% Triton (registered trademark) X-100, 1 mmol/L DTT, pH 7.5) to obtain a test compound solution.
The human ROCK2 kinase was expressed by fusing the catalytic domain (1 to 553 amino acids of Accession No. NP_004841.2) with GST at the N-terminus using the baculovirus expression system. GST-ROCK2 was purified by glutathione sepharose chromatography.
A 4-fold concentration substrate (LIMKtide, 1000 nmol/L) /ATP (5 µmol/L)/metal solution (Mg, 5 mmol/L) was prepared with kit buffer (20 mmol/L HEPES, 0.01% Triton (registered trademark) X-100, 5 mmol/L DTT, pH 7.5). A 2-fold concentration kinase solution was prepared with assay buffer. 5 µL of a 4-fold concentration test compound solution, 5 µL of a 4-fold concentration substrate/ATP/metal solution, and 10 µL of a 2-fold concentration kinase solution were mixed in a well of a polypropylene 384 well plate, and the mixture was reacted at room temperature for 1 hour. 70 µL of termination buffer (127 mmol/L HEPES, 0.01% Triton (registered trademark) X-100, 26.7 mmol/L EDTA-2Na, 1% DMSO, pH 7.5) was added to stop the reaction. The substrate peptide and the phosphorylated peptide in the reaction solution were separated and quantified using a LabChip (trademark) system (Perkin Elmer).
The kinase reaction was evaluated by the product ratio (P/(P + S)) calculated from the substrate peptide peak height (S) and the phosphorylated peptide peak height (P).
The average signal of the control well including all the reaction components was set to 0% suppression, the average signal of the background well (no enzyme added) was set to 100% suppression, and the inhibition rate was calculated from the average signal of the test compound test well.
The ROCK2 inhibition rate and the evaluation concentration of the test compound are shown in Table 4-1, and the IC50 value of the inhibitory activity is shown in Table 4-2. […]
Target sequence in this assay (O75116 1-553): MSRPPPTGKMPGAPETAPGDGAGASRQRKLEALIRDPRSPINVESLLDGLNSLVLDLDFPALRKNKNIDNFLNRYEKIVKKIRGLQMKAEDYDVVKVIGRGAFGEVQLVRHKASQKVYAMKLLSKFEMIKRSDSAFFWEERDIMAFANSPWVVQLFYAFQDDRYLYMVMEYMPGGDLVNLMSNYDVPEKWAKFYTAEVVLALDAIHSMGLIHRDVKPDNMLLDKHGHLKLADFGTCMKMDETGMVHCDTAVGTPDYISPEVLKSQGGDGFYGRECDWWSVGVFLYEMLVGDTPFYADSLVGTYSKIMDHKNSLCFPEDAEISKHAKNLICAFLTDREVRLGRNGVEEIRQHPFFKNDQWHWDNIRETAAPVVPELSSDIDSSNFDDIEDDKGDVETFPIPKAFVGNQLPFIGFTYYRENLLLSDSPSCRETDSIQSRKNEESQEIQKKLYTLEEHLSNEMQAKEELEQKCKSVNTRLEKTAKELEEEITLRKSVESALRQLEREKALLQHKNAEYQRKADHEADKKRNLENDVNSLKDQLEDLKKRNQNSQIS

ROCK2 protein [2] = molecular target: T1, ROCK2 protein; test: Degradation inducing activity of ROCK2 protein in HUVEC cells, Western blotting (Simple Western JESS); assay type: cell-based; design: endogenous in cells; host or cells: HUVEC (ATCC CRL-1730); conditions: HUVEC, 24 h; for inhibition at 1 µM: degradation rate at 1 µM; for inhibition at 10 µM: degradation rate at 10 µM
Method in brief: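 HUVEC cells treated 24 h with compound at 10 µM or 1 µM, then lysed; ROCK2 quantified by capillary Western (Simple Western JESS) using rabbit mAb D1B1, normalized to total loaded protein. Degradation rate (%) calculated relative to DMSO control set at 100%, binned A ≥75%, B 50–75%, C 25–50%, D <25%.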
Target sequence in this assay (O75116 whole entry): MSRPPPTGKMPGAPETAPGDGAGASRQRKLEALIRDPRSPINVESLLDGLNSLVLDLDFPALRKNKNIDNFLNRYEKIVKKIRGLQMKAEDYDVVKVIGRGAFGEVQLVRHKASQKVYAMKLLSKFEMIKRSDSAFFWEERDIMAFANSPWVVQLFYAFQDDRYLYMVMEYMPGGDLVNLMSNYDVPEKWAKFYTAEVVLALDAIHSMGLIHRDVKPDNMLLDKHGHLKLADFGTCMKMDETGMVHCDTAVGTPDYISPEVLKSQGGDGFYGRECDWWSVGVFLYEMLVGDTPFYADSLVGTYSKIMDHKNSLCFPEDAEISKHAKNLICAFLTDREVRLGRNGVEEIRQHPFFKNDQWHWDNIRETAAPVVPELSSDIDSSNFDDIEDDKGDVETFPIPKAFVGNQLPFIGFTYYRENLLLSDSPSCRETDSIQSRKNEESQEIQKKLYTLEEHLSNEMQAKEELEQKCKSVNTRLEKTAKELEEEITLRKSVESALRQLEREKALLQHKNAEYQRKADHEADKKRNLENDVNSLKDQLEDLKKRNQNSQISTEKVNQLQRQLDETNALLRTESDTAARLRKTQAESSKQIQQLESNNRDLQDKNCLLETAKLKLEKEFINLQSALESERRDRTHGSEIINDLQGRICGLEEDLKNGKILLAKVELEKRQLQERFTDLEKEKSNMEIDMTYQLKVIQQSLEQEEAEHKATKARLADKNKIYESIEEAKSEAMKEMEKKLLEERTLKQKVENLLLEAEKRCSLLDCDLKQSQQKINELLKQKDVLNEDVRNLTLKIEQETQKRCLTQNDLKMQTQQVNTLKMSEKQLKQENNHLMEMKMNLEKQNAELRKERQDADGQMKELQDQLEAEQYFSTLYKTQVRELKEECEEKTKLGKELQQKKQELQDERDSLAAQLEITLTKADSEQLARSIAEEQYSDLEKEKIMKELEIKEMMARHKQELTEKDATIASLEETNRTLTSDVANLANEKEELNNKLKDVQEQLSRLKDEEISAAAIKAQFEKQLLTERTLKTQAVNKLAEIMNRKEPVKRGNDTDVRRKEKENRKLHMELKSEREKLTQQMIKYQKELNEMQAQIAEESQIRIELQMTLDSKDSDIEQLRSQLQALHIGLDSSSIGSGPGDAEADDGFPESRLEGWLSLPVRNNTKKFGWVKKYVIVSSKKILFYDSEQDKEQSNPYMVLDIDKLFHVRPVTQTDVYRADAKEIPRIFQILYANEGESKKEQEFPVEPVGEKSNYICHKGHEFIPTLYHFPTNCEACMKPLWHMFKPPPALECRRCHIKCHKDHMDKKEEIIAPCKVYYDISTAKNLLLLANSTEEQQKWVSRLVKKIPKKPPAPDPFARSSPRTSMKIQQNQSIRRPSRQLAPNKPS

[3] = read-out: ROCK2 inhibition rate

| Compound | IC50 (ROCK2 protein [1]) | inhibition at 1 µM (ROCK2 protein [2]) | inhibition at 10 µM (ROCK2 protein [2]) | other results |
| --- | --- | --- | --- | --- |
| COCCOCCNC[C@@H](C(=O)Nc1ccc2cnccc2c1)c1ccccc1 [Ref.Example 14, (S)-N-(Isoquinolin-6-yl)-3-((2-(2-methoxyethoxy)ethyl)amino)-2-phenylpropanamide, reference compound] | < 30 nM |  |  |  |
| C[C@@H]1CN(CC(=O)N2CC(C)(C)c3ncc(Cc4ccc(F)cc4)cc32)[C@@H](CN(C)CCOCCOCCNC[C@@H](C(=O)Nc2ccc3cnccc3c2)c2ccccc2)CN1 [Example 16, (S)-1-((2R,5R)-1-(2-(6-(4-Fluorobenzyl)-3,3-dimethyl-2,3-dihydro-1H-pyrrolo[3,2-b]pyridin-1-yl)-2-oxoethyl)-5-methylpiperazin-2-yl)-N-(isoquinolin-6-yl)-2-methyl-13-phenyl-5,8-dioxa-2,11-diazatetradecan-14-amide] |  | 25 to 50% | ≥ 75% | inhibition at 0.03 µM (ROCK2 protein [1]; evaluation concentration 0.03 µM, read-out: ROCK2 inhibition rate): 50 to 75% |
| COC[C@H]1CN[C@H](C)CN1CC(=O)N1CC(C)(C)c2nc(CN(C)CCOCCOCCOCCN[C@H](C)c3ccc(C(=O)Nc4ccncc4)cc3)c(Cc3ccc(F)cc3)cc21 [Example 24, 4-((R)-1-(6-(4-Fluorobenzyl)-1-(2-((2R,5R)-2-(methoxymethyl)-5-methylpiperazin-1-yl)acetyl)-3,3-dimethyl-2,3-dihydro-1H-pyrrolo[3,2-b]pyridin-5-yl)-2-methyl-5,8,11-trioxa-2,14-diazahexadecan-15-yl)-N-(pyridin-4-yl)benzamide] |  | ≥ 75% | 50 to 75% | inhibition at 10 µM (ROCK2 protein [1]; [3]): ≥ 75% |
| C[C@@H]1CN(CC(=O)N2CC(C)(C)c3ncc(Cc4ccc(F)cc4)cc32)[C@@H](CN(C)CCOCCOCCN[C@H](Cc2cccc(F)c2)C(=O)Nc2ccc(-c3ccncc3)cc2)CN1 [Example 9, (R)-12-(3-Fluorobenzyl)-1-((2R,5R)-1-(2-(6-(4-fluorobenzyl)-3,3-dimethyl-2,3-dihydro-1H-pyrrolo[3,2-b]pyridin-1-yl)-2-oxoethyl)-5-methylpiperazin-2-yl)-2-methyl-N-(4-(pyridin-4-yl)phenyl)-5,8-dioxa-2,11-diazatridecan-13-amide] |  | < 25% | ≥ 75% | inhibition at 1 µM (ROCK2 protein [1]; [3]): 25 to 50% |
| COCCOCCN[C@H](Cc1cccc(F)c1)C(=O)Nc1ccc(-c2ccncc2)cc1 [Ref.Example 12, (R)-3-(3-Fluorophenyl)-2-((2-(2-methoxyethoxy)ethyl)amino)-N-(4-(pyridin-4-yl)phenyl)propanamide, reference compound] | 300 to 3000 nM |  |  |  |
| COC[C@H]1CN[C@H](C)CN1CC(=O)N1CC(C)(C)c2nc(CN(C)CCOCCOCCOCCN[C@H](Cc3cccc(F)c3)C(=O)Nc3ccc(-c4ccncc4)cc3)c(Cc3ccc(F)cc3)cc21 [Example 31, (R)-15-(3-Fluorobenzyl)-1-(6-(4-fluorobenzyl)-1-(2-((2R,5R)-2-(methoxymethyl)-5-methylpiperazin-1-yl)acetyl)-3,3-dimethyl-2,3-dihydro-1H-pyrrolo[3,2-b]pyridin-5-yl)-2-methyl-N-(4-(pyridin-4-yl)phenyl)-5,8,11-trioxa-2,14-diazahexadecan-16-amide] |  | 50 to 75% | 50 to 75% | inhibition at 1 µM (ROCK2 protein [1]; [3]): 25 to 50% |
| C[C@@H]1CN(CC(=O)N2CC(C)(C)c3ncc(Cc4ccc(F)cc4)cc32)[C@@H](CN(C)CCOCCOCCOCCN[C@H](C)c2ccc(C(=O)Nc3ccncc3)cc2)CN1 [Example 3, 4-((R)-1-((2R,5R)-1-(2-(6-(4-Fluorobenzyl)-3,3-dimethyl-2,3-dihydro-1H-pyrrolo[3,2-b]pyridin-1-yl)-2-oxoethyl)-5-methylpiperazin-2-yl)-2-methyl-5,8,11-trioxa-2,14-diazahexadecan-15-yl)-N-(pyridin-4-yl)benzamide] |  | 50 to 75% | ≥ 75% | inhibition at 10 µM (ROCK2 protein [1]; [3]): ≥ 75% |
| COC[C@H]1CN[C@H](C)CN1CC(=O)N1CC(C)(C)c2ncc(Cc3cccc(OCCOCCOCCOCCOCCOCCOCCOCCN[C@H](Cc4cccc(F)c4)C(=O)Nc4ccc(-c5ccncc5)cc4)c3)cc21 [Example 56, (R)-2-(3-Fluorobenzyl)-26-(3-((1-(2-((2R,5R)-2-(methoxymethyl)-5-methylpiperazin-1-yl)acetyl)-3,3-dimethyl-2,3-dihydro-1H-pyrrolo[3,2-b]pyridin-6-yl)methyl)phenoxy)-N-(4-(pyridin-4-yl)phenyl)-6,9,12,15,18,21,24-heptaoxa-3-azahexacosanamide] |  | 50 to 75% | 50 to 75% | inhibition at 1 µM (ROCK2 protein [1]; [3]): < 25% |
| COCCOCCCN[C@H](Cc1cccc(F)c1)C(=O)Nc1ccc(-c2ccncc2)cc1 [Ref.Example 13, (R)-3-(3-Fluorophenyl)-2-((3-(2-methoxyethoxy)propyl)amino)-N-(4-(pyridin-4-yl)phenyl)propanamide, reference compound] | 30 to 300 nM |  |  |  |
| COCCOCCN[C@H](C)c1ccc(C(=O)Nc2ccncc2)cc1 [Ref.Example 10, (R)-4-(1-((2-(2-Methoxyethoxy)ethyl)amino)ethyl)-N-(pyridin-4-yl)benzamide, reference compound] | 3000 to 10000 nM |  |  |  |
| COCCOCCCN[C@H](C)c1ccc(C(=O)Nc2ccncc2)cc1 [Ref.Example 11, (R)-4-(1-((3-(2-Methoxyethoxy)propyl)amino)ethyl)-N-(pyridin-4-yl)benzamide, reference compound] | 3000 to 10000 nM |  |  |  |
| COCCOCCCNC[C@@H](C(=O)Nc1ccc2cnccc2c1)c1ccccc1 [Ref.Example 15, (S)-N-(Isoquinolin-6-yl)-3-((3-(2-methoxyethoxy)propyl)amino)-2-phenylpropanamide, reference compound] | < 30 nM |  |  |  |
| C[C@@H]1CN(CC(=O)N2CC(C)(C)c3ncc(Cc4ccc(F)cc4)cc32)[C@@H](CN(C)CCOCCN[C@H](C)c2ccc(C(=O)Nc3ccncc3)cc2)CN1 [Example 1, 4-((R)-1-((2-(2-((((2R,5R)-1-(2-(6-(4-Fluorobenzyl)-3,3-dimethyl-2,3-dihydro-1H-pyrrolo[3,2-b]pyridin-1-yl)-2-oxoethyl)-5-methylpiperazin-2-yl)methyl)(methyl)amino)ethoxy)ethyl)amino)ethyl)-N-(pyridin-4-yl)benzamide] |  | 25 to 50% | ≥ 75% |  |
| C[C@@H]1CN(CC(=O)N2CC(C)(C)c3ncc(Cc4ccc(F)cc4)cc32)[C@@H](CN(C)CCOCCOCCOCCOCCOCCNC[C@@H](C(=O)Nc2ccc3cnccc3c2)c2ccccc2)CN1 [Example 19, (S)-1-((2R,5R)-1-(2-(6-(4-Fluorobenzyl)-3,3-dimethyl-2,3-dihydro-1H-pyrrolo[3,2-b]pyridin-1-yl)-2-oxoethyl)-5-methylpiperazin-2-yl)-N-(isoquinolin-6-yl)-2-methyl-22-phenyl-5,8,11,14,17-pentaoxa-2,20-diazatricosan-23-amide] |  | 25 to 50% | ≥ 75% |  |
| COC[C@H]1CN[C@H](C)CN1CC(=O)N1CC(C)(C)c2ncc(Cc3ccccc3OCCOCCOCCOCCOCCNC[C@@H](C(=O)Nc3ccc4cnccc4c3)c3ccccc3)cc21 [Example 81, (S)-N-(Isoquinolin-6-yl)-1-(2-((1-(2-((2R,5R)-2-(methoxymethyl)-5-methylpiperazin-1-yl)acetyl)-3,3-dimethyl-2,3-dihydro-1H-pyrrolo[3,2-b]pyridin-6-yl)methyl)phenoxy)-17-phenyl-3,6,9,12-tetraoxa-15-azaoctadecan-18-amide] |  | 50 to 75% | 25 to 50% |  |
| COC[C@H]1CN[C@H](C)CN1CC(=O)N1CC(C)(C)c2ncc(Cc3ccccc3OCCOCCNC[C@@H](C(=O)Nc3ccc4cnccc4c3)c3ccccc3)cc21 [Example 78, (S)-N-(Isoquinolin-6-yl)-3-((2-(2-(2-((1-(2-((2R,5R)-2-(methoxymethyl)-5-methylpiperazin-1-yl)acetyl)-3,3-dimethyl-2,3-dihydro-1H-pyrrolo[3,2-b]pyridin-6-yl)methyl)phenoxy)ethoxy)ethyl)amino)-2-phenylpropanamide] |  | < 25% | ≥ 75% |  |
